≈ marks a conversion by molar mass, not a printed value.
Tests used:
Staphylococcus aureus = experiment: Susceptibility testing, NCCLS microdilution MIC; assay type: cell-based; details: ATCC25923, S. aureus ATCC 25923, Example A′, read-out: MIC S. aureus
[1] = tested on: E. coli transcription/translation (bacterial protein synthesis, E. coli S30 extract); experiment: In vitro inhibition of E. coli transcription and translation assay (TT), cell-free; assay type: biochemical; details: for IC50: cell-free E. coli S30 extract; for In vitro inhibition of E. coli transcription and translation compared with literature azepine compound VIII(18): cell-free TT assay, comparison in words
Description: Inhibition of bacterial protein synthesis was assayed in a cell-free E. coli transcription/translation assay.
Stock solutions of compounds were prepared at 10 mg/mL in DMSO. The assay contained less or equal to 1% (v/v) final concentration of DMSO. Three-fold serial dilutions were prepared in assay buffer at 6-fold final concentration in 96 well microtiter plate.
All vials, tubes and microtiter plates are RNase free. The Mix was freshly prepared with 10 μl H2O, 10 μl AA-M, 10 μl AA-L, 80 μl Premix and 50 μl ES30 extract. The assay was performed in a 96-well plate. Five microliters of compounds at various concentrations (6-fold final assay concentration) were preincubated with 20 μl of the mix for 5 min at room temperature. The reaction started with addition of 5 μl of plasmid (˜0.1 mg/mL pGEMBGAL), and kept at 37° C. for 1 h followed by the addition of 150 μl of OPNG solution (4 mg/mL OPNG in 0.1M NaPi, pH 7.5, 1 mM MgCl2 and 2 mM DTT). 150 μl of the reaction was transferred to a ½-area plate and increase in absorption at OD420 nm was monitored for 10 min using a Spectramax plate reader (Molecular Devices). The slope of absorption change over time is corresponding to the pathway activity.
The E. coli S30 Extract for circular DNA kit was purchased from Promega. Original plasmid pGEMBGAL was obtained from Promega and amplified via Maxiprep in house. 2-Nitrophenyl β-D-galactopyranoside was obtained from Sigma. Clindamycin HCl (USP) was purchased from Spectrum.
The inhibition are expressed as percent of control activity (without inhibitor) which is calculated according to equation (1): Inhibition %=(compound slope-blank slope)/(control slope-blank slope)*100 (1)
All IC50s were determined by fitting the experimental data to equation (2) using software DeltaGraph (DeltaPoint Inc.): Y=Y0/(1+(X/IC50)[…])+c (2)
Where Y: activity at given inhibitor concentration; Y0: activity without inhibitor; X: inhibitor concentration; d: slope; c: constant.
Lincosamides inhibit bacterial growth through binding to the bacterial 50S ribosome, thus inhibiting peptide bond formation. The transcription/translation assay provides a screening tool to measure inhibition of bacterial protein synthesis pathway at the target level without the complication of differences in membrane permeability.

Bacteroides fragilis = experiment: Susceptibility testing, NCCLS microdilution MIC (anaerobe); assay type: cell-based; details: Bacteroides fragilis, ATCC25285; B. fragilis ATCC 25285; Example A′; read-out: MIC B. fragilis
Enterococcus faecalis = experiment: Susceptibility testing, NCCLS microdilution MIC; assay type: cell-based; details: Enterococcus faecalis, ATCC29212; E. faecalis ATCC 29212; Example A′; read-out: MIC E. faecalis
Haemophilus influenzae = experiment: Susceptibility testing, NCCLS microdilution MIC; assay type: cell-based; details: Haemophilus influenzae, ATCC31517; H. influenzae ATCC 31517; Example A′; read-out: MIC H. influenzae

SMILES	MIC (Staphylococcus aureus)	IC50 [1]	In vitro inhibition of E. coli transcription and translation compared with literature azepine compound VIII(18) [1]	MIC (Bacteroides fragilis)	MIC (Enterococcus faecalis)	MIC (Haemophilus influenzae)
CS[C@H]1O[C@H]([C@H](NC(=O)C2CC[C@H](CCCCO)CCN2)[C@H](C)Cl)[C@H](O)[C@H](O)[C@H]1O (stereo in doubt) [Example 1′, 5-(4-Hydroxy-butyl)-azepane-2-carboxylic acid [2-chloro-1-(3,4,5-trihydroxy-6-methylsulfanyl-tetrahydro-pyran-2-yl)-propyl]-amide]	0.25 µg/mL (≈ 0.533 µM)	530 nM	markedly superior	8 µg/mL (≈ 17.1 µM)	1 µg/mL (≈ 2.13 µM)	0.5 µg/mL (≈ 1.07 µM)
CS[C@H]1O[C@H]([C@H](NC(=O)C2CC[C@H](CCCO)CCN2)[C@H](C)Cl)[C@H](O)[C@H](O)[C@H]1O (stereo in doubt) [Example 2′, 5-(3-Hydroxy-propyl)-azepane-2-carboxylic acid [2-chloro-1-(3,4,5-trihydroxy-6-methylsulfanyl-tetrahydro-pyran-2-yl)-propyl]-amide]	0.5 µg/mL (≈ 1.1 µM)	400 nM	markedly superior	4 µg/mL (≈ 8.79 µM)	1 µg/mL (≈ 2.2 µM)	0.5 µg/mL (≈ 1.1 µM)
CS[C@H]1O[C@H]([C@H](NC(=O)C2CC[C@H](CCCCC#N)CCN2)[C@H](C)Cl)[C@H](O)[C@H](O)[C@H]1O (stereo in doubt) [Example 8′, 5-(4-Cyano-butyl)-azepane-2-carboxylic acid [2-chloro-1-(3,4,5-trihydroxy-6-methylsulfanyl-tetrahydro-pyran-2-yl)-propyl]-amide]	0.125 µg/mL (≈ 0.261 µM)	190 nM	markedly superior	1 µg/mL (≈ 2.09 µM)	0.06 µg/mL (≈ 0.126 µM)	0.5 µg/mL (≈ 1.05 µM)
CS[C@H]1O[C@H]([C@H](NC(=O)C2CC[C@H](CCCn3ccnn3)CCN2)[C@H](C)Cl)[C@H](O)[C@H](O)[C@H]1O (stereo in doubt) [Example 9′, 5-(3-[1,2,3]Triazol-1-yl-propyl)-azepane-2-carboxylic acid [2-chloro-1-(3,4,5-trihydroxy-6-methylsulfanyl-tetrahydro-pyran-2-yl)-propyl]-amide]	0.5 µg/mL (≈ 0.988 µM)	280 nM	markedly superior	> 8 µg/mL	4 µg/mL (≈ 7.9 µM)	2 µg/mL (≈ 3.95 µM)
CS[C@H]1O[C@H]([C@H](NC(=O)[C@@H]2CC[C@H](CCC(F)F)CCN2)[C@H](C)Cl)[C@H](O)[C@H](O)[C@H]1O [Example 10′, 5-(3,3-Difluoro-propyl)-azepane-2-carboxylic acid [2-chloro-1-(3,4,5-trihydroxy-6-methylsulfanyl-tetrahydro-pyran-2-yl)-propyl]-amide]	0.06 µg/mL (≈ 0.126 µM)	530 nM	markedly superior	1 µg/mL (≈ 2.11 µM)	0.125 µg/mL (≈ 0.263 µM)	0.5 µg/mL (≈ 1.05 µM)
CS[C@H]1O[C@H]([C@H](NC(=O)[C@@H]2CC[C@H](CCCC(F)F)CCN2)[C@H](C)Cl)[C@H](O)[C@H](O)[C@H]1O [Example 11′, 5-(4,4-Difluoro-butyl)-azepane-2-carboxylic acid [2-chloro-1-(3,4,5-trihydroxy-6-methylsulfanyl-tetrahydro-pyran-2-yl)-propyl]-amide]	0.06 µg/mL (≈ 0.123 µM)	250 nM	markedly superior	1 µg/mL (≈ 2.04 µM)	0.06 µg/mL (≈ 0.123 µM)	0.25 µg/mL (≈ 0.511 µM)
COCCCC[C@@H]1CCN[C@H](C(=O)N[C@@H]([C@H]2O[C@H](SC)[C@H](O)[C@@H](O)[C@H]2O)[C@H](C)Cl)CC1 [Example 12′, 5-(4-Methoxy-butyl)-azepane-2-carboxylic acid [2-chloro-1-(3,4,5-trihydroxy-6-methylsulfanyl-tetrahydro-pyran-2-yl)-propyl]-amide]	0.06 µg/mL (≈ 0.124 µM)	290 nM	markedly superior	2 µg/mL (≈ 4.14 µM)	0.5 µg/mL (≈ 1.04 µM)	0.5 µg/mL (≈ 1.04 µM)

From patent US7361743B2 (Pfizer Inc, priority 2004, dated 2008)
